Legend:
[1] = system: human colon cancer cells (DLD-1); assay: MTT cytotoxic activity assay, DLD-1 cells, 72 h; type: cell-based; details: DLD-1 cell line
Source text: (§1) Cancer treatment often damages healthy cells and tissues. Every treatment has important and diverse side effects; these depend mainly on the type and extent of treatment, are not the same for everyone, and may even vary from one treatment to another in the same person. While most cancer patients receiving chemotherapy lose hair during the treatment process, other side effects vary depending on the type of drug. Therefore, the discovery of new drugs with side effects lower than those of the chemotherapeutic agents used in treatment has become an important focus of cancer research. In the present study, the cytotoxic activities of new compounds (1–18) and cisplatin were tested in prostate and colon cancer cell lines and healthy embryonic kidney cell line for 72 h.
(§2) The PC3 and DLD-1 cell lines were purchased from the American Type Culture Collection. The PC3, DLD-1, and HEK-293T cells were seeded in 96-well plates at a density of 5 × 10^3 cells/well for cytotoxic activity studies.[36]−[38] Cells were exposed to compounds at concentrations of 300, 150, 75, and 37.5 μM after 24 h. The 50 μL (5 mg/mL) amount of MTT stock solution was added to wells after 72 h and incubated for a further 2 h. The absorbance values were measured by using an Epoch 2 ELISA plate reader at 590 nm.

[2] = system: human prostate cancer cells (PC3); assay: MTT cytotoxic activity assay, PC3 cells, 72 h; type: cell-based
Source text: as §1, §2

[3] = system: human embryonic kidney cells (HEK-293T); assay: MTT cytotoxic activity assay, HEK-293T healthy cells, 72 h; type: cell-based; details: HEK-293T healthy cell line
Source text: as §1
To determine whether all of the prepared substances had selectivity for healthy cells, the compounds were tested against HEK-293T cells at the same concentrations as those applied to cancer cells. […] Changes in the cell viability ratio depending on concentrations of the tested compounds (1–18) and cisplatin are given below (Figure 3).
as §2

[4] = Homo sapiens, PC-3, PC3 cell line

Row | SMILES | IC50 ([1]; Homo sapiens) | IC50 [2, 4] | melting point | IC50 [3] | IC50 [1] | IC50 ([2]; PC3 cell line)
1 | O=Cc1ccccc1OS(=O)(=O)c1ccc(C(F)(F)F)cc1 [Compound 1] | 22.5 ± 2.6 µM | 14.3 ± 1.87 µM | 83 to 84 °C | 19.5 ± 1.57 µM |  | 
2 | O=Cc1cccc(OS(=O)(=O)c2ccc(C(F)(F)F)cc2)c1 [Compound 2] | 41.2 ± 3.94 µM | 24.5 ± 2.09 µM | 79 to 80 °C | 60 ± 4.81 µM |  | 
3 | O=Cc1ccc(OS(=O)(=O)c2ccc(C(F)(F)F)cc2)cc1 [Compound 3] | 115 ± 5.78 µM | 76.6 ± 3.55 µM | 110 to 111 °C | 89.26 ± 0.17 µM |  | 
4 | COc1cccc(C=O)c1OS(=O)(=O)c1ccc(C(F)(F)F)cc1 [Compound 4] | 13.5 ± 1.64 µM | 10.3 ± 0.8 µM |  | 35.3 ± 1.15 µM |  | 
5 | COc1ccc(C=O)c(OS(=O)(=O)c2ccc(C(F)(F)F)cc2)c1 [Compound 5] | 19.3 ± 2.71 µM | 11.2 ± 0.94 µM |  | 38.6 ± 2.81 µM |  | 
6 | COc1ccc(C=O)cc1OS(=O)(=O)c1ccc(C(F)(F)F)cc1 [Compound 6] | 17.8 ± 0.53 µM | 16 ± 1.71 µM |  | 91 ± 2.26 µM |  | 
7 | COc1cc(C=O)ccc1OS(=O)(=O)c1ccc(C(F)(F)F)cc1 [Compound 7] | 74 ± 4.34 µM | 71.6 ± 3.46 µM | 112 to 113 °C | 110 ± 5.97 µM |  | 
8 | CCN(CC)c1ccc(C=O)c(OS(=O)(=O)c2ccc(C(F)(F)F)cc2)c1 [Compound 8] | 24.7 ± 1.9 µM | 28.8 ± 1.85 µM | 114 to 116 °C | 40.8 ± 5.68 µM |  | 
9 | O=Cc1c(OS(=O)(=O)c2ccc(C(F)(F)F)cc2)ccc2ccccc12 [Compound 9] | 17.6 ± 0.62 µM | 14.8 ± 1.03 µM | 129 to 131 °C | 34.7 ± 2.21 µM |  | 
10 | O=C(NN=Cc1ccccc1OS(=O)(=O)c1ccc(C(F)(F)F)cc1)c1ccncc1 [Compound 10] | 17.9 ± 0.51 µM | 139 ± 5.82 µM |  | 52.2 ± 3.52 µM |  | 
11 | O=C(NN=Cc1cccc(OS(=O)(=O)c2ccc(C(F)(F)F)cc2)c1)c1ccncc1 [Compound 11] | 144 ± 4.18 µM | 80.1 ± 4.59 µM | 189 to 190 °C | 245 ± 5.79 µM |  | 
12 | O=C(N/N=C/c1ccc(OS(=O)(=O)c2ccc(C(F)(F)F)cc2)cc1)c1ccncc1 [Compound 12] | > 300 µM | > 300 µM | 208 to 209 °C | > 300 µM |  | 
13 | COc1cccc(C=NNC(=O)c2ccncc2)c1OS(=O)(=O)c1ccc(C(F)(F)F)cc1 [Compound 13] | 78.8 ± 3.15 µM | 214 ± 6.48 µM | 198 to 199 °C | > 300 µM |  | 
14 | COc1ccc(C=NNC(=O)c2ccncc2)c(OS(=O)(=O)c2ccc(C(F)(F)F)cc2)c1 [Compound 14] | 28.4 ± 2.81 µM | 16.5 ± 1.54 µM | 180 to 181 °C | 26.6 ± 2.62 µM |  | 
15 | COc1ccc(C=NNC(=O)c2ccncc2)cc1OS(=O)(=O)c1ccc(C(F)(F)F)cc1 [Compound 15] | 63.8 ± 5.32 µM | 97.4 ± 4.85 µM |  | 166 ± 6.71 µM |  | 
16 | COc1cc(C=NNC(=O)c2ccncc2)ccc1OS(=O)(=O)c1ccc(C(F)(F)F)cc1 [Compound 16] | 72.8 ± 3.13 µM | 121 ± 5.71 µM | 192 to 193 °C | 183 ± 2.72 µM |  | 
17 | CCN(CC)c1ccc(C=NNC(=O)c2ccncc2)c(OS(=O)(=O)c2ccc(C(F)(F)F)cc2)c1 [Compound 17] | 110 ± 5.09 µM | 57.6 ± 1.83 µM | 141 to 142 °C | 132 ± 5.46 µM |  | 
18 | O=C(NN=Cc1c(OS(=O)(=O)c2ccc(C(F)(F)F)cc2)ccc2ccccc12)c1ccncc1 [Compound 18] | 37.4 ± 4.63 µM | 17.05 ± 0.09 µM |  | 15.75 ± 0.11 µM |  | 
19 | N.N.[Cl][Pt][Cl] [cisplatin, reference compound] |  |  |  |  | 26.7 ± 2.78 µM | 8.8 ± 0.51 µM

— PMC11025081, “Design, Synthesis, and In Silico and In Vitro Cytotoxic Activities of Novel Isoniazid–Hydrazone Analogues Linked to Fluorinated Sulfonate Esters” (ACS Omega, 2024)
